In BindingDB's records for doi:10.1021/jm800476q (Bristol Myers Squibb, 2008):

Target: Hepatocyte growth factor receptor (Homo sapiens, UniProt P08581)
Assay: Met Kinase Inhibition Assay
Settings: pH 7.5; 30 °C

Sequence of Hepatocyte growth factor receptor (P08581 whole entry): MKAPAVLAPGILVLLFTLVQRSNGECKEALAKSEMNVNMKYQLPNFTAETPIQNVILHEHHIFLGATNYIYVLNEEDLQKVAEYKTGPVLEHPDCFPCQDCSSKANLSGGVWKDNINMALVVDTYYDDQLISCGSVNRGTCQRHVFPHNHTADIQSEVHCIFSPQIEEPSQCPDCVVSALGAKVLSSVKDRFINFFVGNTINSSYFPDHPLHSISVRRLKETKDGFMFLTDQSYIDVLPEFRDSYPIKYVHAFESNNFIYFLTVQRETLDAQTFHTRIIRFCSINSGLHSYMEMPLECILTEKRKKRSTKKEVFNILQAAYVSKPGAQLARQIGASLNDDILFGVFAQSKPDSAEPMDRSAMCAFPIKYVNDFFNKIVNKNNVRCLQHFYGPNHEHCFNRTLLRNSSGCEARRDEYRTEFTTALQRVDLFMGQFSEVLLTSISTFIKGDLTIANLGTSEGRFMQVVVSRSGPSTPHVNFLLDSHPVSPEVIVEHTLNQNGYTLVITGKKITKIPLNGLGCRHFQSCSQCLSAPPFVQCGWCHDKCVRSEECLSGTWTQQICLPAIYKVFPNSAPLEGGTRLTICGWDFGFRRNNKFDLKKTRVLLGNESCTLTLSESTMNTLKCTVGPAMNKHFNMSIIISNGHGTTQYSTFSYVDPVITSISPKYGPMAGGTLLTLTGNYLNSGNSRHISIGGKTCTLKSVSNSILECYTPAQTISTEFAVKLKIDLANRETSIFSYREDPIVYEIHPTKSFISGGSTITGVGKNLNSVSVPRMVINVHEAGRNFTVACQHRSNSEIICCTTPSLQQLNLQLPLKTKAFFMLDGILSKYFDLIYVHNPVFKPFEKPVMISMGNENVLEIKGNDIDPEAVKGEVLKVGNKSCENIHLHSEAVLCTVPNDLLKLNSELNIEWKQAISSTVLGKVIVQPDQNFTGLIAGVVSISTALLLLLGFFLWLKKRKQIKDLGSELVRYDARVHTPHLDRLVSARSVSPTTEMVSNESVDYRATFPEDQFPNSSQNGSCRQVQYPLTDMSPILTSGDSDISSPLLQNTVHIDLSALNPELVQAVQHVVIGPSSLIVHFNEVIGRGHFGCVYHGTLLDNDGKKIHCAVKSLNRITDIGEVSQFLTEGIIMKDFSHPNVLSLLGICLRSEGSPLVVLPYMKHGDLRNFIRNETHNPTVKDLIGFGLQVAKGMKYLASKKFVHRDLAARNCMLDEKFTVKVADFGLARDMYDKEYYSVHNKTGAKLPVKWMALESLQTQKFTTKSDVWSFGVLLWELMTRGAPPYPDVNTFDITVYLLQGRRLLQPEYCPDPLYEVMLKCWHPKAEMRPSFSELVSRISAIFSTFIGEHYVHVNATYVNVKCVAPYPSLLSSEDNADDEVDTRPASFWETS

SMILES	IC50 [nM]
O=C(Nc1ccc(Oc2ccnc3[nH]ccc23)c(F)c1)c1cn(-c2ccc(Cl)c(F)c2)cc(-c2ccc(F)cc2)c1=O [1-(4-chloro-3-fluorophenyl)-N-(3-fluoro-4-{1H-pyrrolo[2,3-b]pyridin-4-yloxy}phenyl)-5-(4-fluorophenyl)-4-oxo-1,4-dihydropyridine-3-carboxamide]	5
COc1ccc(-n2cc(C(=O)Nc3ccc(Oc4ccnc5[nH]ccc45)c(F)c3)c(=O)c(-c3ccc(F)cc3)c2)cc1F [1-(3-fluoro-4-methoxyphenyl)-N-(3-fluoro-4-{1H-pyrrolo[2,3-b]pyridin-4-yloxy}phenyl)-5-(4-fluorophenyl)-4-oxo-1,4-dihydropyridine-3-carboxamide]	2.3
